Source: patent US9902736B2, “1-oxo/acylation-14-acylated oridonin derivative, preparation method therefor and application thereof” (HANGZHOU BENSHENG PHARMACEUTICAL CO., LTD., priority 2012, dated 2018)
≈ marks a conversion by molar mass, not a printed value.

Key:
K562/ADR = assay: Leukemia cell growth inhibition, MTT, 72 h; format: cell-based; settings: Homo sapiens
From the text: (§1) Leukemia cell lines: leukemia cell lines: K562/adr (drug-resistant, chronic myeloid leukemia, CML), NB4 (acute promyelocytic leukemia, AML), Kasumi-1 (acute myeloid leukemia M2 type, AML-M2), Jurkat (acute lymphoblastic leukemia, ALL), all of which were donated by Cancer Research Institute of Zhejiang University, China; and H9 (acute lymphoblastic leukemia, ALL), which was purchased from China Center for Type Culture Collection.
(§2) 6000 well-growing leukemia cells were obtained and inoculated into wells of a 96-well cell culture plate. […] On the next day, the 1-oxo/acylated-14-acylated oridonin derivatives of different concentrations were added and mixed uniformly. The plate was placed in a carbon dioxide cell incubator (5% CO2) at 37° C. and was incubated for 72 hours. Then the viable cell concentration was determined by MTT method.

Kasumi-1 = assay: Leukemia cell growth inhibition, MTT, 72 h; format: cell-based; settings: Homo sapiens
From the text: as §1, §2

RPMI 8226 = assay: Multiple myeloma cell growth inhibition, MTT, 72 h; format: cell-based; settings: Homo sapiens
Protocol: Multiple myeloma cell lines: RPMI8226 (multiple myeloma), purchased from Fuxiang Bio-tech Co. Ltd., Shanghai, China.
6000 well-growing cells were obtained and inoculated into wells of a 96-well cell culture plate. […] On the next day, the 1-oxo/acylated-14-acylated oridonin derivatives of different concentrations were added and mixed uniformly. The plate was placed in a carbon dioxide cell incubator (5% CO2) at 37° C. and incubated for 72 hours. Then the viable cell concentration was determined by MTT method.

MG-63 = assay: Solid tumor cell growth inhibition, MTT, 72 h; format: cell-based; settings: Homo sapiens
Protocol: (§3) 6000 well-growing human solid tumor cells were obtained and inoculated into wells of a 96-well cell culture plate. The culture medium was DMEM High Glucose cell culture medium containing 10% fetal bovine serum. The plate was placed in a carbon dioxide cell incubator (5% CO2) at 37° C. and incubated for 24 hours. After added with 1-oxo/acylated-14-acylated oridonin derivatives of different concentration and mixed uniformly, the plate was placed in a carbon dioxide cell incubator (5% CO2) at 37° C. and incubated for 72 hours. Then the viable cell concentration was determined by MTT method.

SK-OV-3 = assay: Solid tumor cell growth inhibition, MTT, 72 h; format: cell-based; settings: Homo sapiens, SK-OV-3, 72 h, MTT; for IC50: read-out: IC50 SK-OV-3; for IC90: read-out: IC90 SK-OV-3
Protocol: as §3

Becap-37 = assay: Solid tumor cell growth inhibition, MTT, 72 h; format: cell-based; settings: Homo sapiens
Protocol: as §3

A549 = assay: Solid tumor cell growth inhibition, MTT, 72 h; format: cell-based; settings: Homo sapiens
Protocol: as §3

Hep G2 = assay: Solid tumor cell growth inhibition, MTT, 72 h; format: cell-based; settings: Homo sapiens, HepG2
Protocol: as §3

PC-3 = assay: Solid tumor cell growth inhibition, MTT, 72 h; format: cell-based; settings: Homo sapiens
Protocol: as §3

U87-MG = assay: Solid tumor cell growth inhibition, MTT, 72 h; format: cell-based; settings: Homo sapiens, U-87 MG
Protocol: as §3

CaEs-17 = assay: Solid tumor cell growth inhibition, MTT, 72 h; format: cell-based; settings: Homo sapiens, CaEs17
Protocol: as §3

RKO = assay: Solid tumor cell growth inhibition, MTT, 72 h; format: cell-based; settings: Homo sapiens
Protocol: as §3

PANC-1 = assay: Solid tumor cell growth inhibition, MTT, 72 h; format: cell-based; settings: Homo sapiens
Protocol: as §3

Jurkat = assay: Leukemia cell growth inhibition, MTT, 72 h; format: cell-based, human; settings: Homo sapiens, Jurkat; 72 h, MTT
From the text: as §1, §2

H9 = assay: Leukemia cell growth inhibition, MTT, 72 h; format: cell-based, human; settings: Homo sapiens, H9; 72 h, MTT
From the text: as §1, §2

NB4 = assay: Leukemia cell growth inhibition, MTT, 72 h; format: cell-based, human; settings: Homo sapiens, NB-4; 72 h, MTT
From the text: as §1, §2

CNE = assay: Solid tumor cell growth inhibition, MTT, 72 h; format: cell-based, human; settings: Homo sapiens, CNE; 72 h, MTT
Protocol: as §3

Hep-2 = assay: Solid tumor cell growth inhibition, MTT, 72 h; format: cell-based, human; settings: Homo sapiens, HEp-2; 72 h, MTT
Protocol: as §3

Hela = assay: Solid tumor cell growth inhibition, MTT, 72 h; format: cell-based, human; settings: Homo sapiens, HeLa; 72 h, MTT
Protocol: as §3

MGC-803 = assay: Solid tumor cell growth inhibition, MTT, 72 h; format: cell-based, human; settings: Homo sapiens, MGC-803; 72 h, MTT
Protocol: as §3

`C=C1C(=O)[C@]23[C@H](OC(=O)c4ccccc4)[C@H]1CC[C@H]2[C@@]12CO[C@@]3(O)[C@@H](O)[C@@H]1C(C)(C)CCC2=O` [BS-OR-001] gave an IC50 (K562/ADR) of 0.6 µg/mL (≈ 1.29 µM), an IC90 (K562/ADR) of 1.73 µg/mL (≈ 3.71 µM) and an IC50 (Kasumi-1) of 0.72 µg/mL (≈ 1.54 µM). It also gave an IC90 (Kasumi-1) of 1.86 µg/mL (≈ 3.99 µM), an IC50 (RPMI 8226) of 0.41 µg/mL (≈ 0.879 µM) and an IC90 (RPMI 8226) of 1.89 µg/mL (≈ 4.05 µM). For the same compound, the IC50 (MG-63) was 0.47 µg/mL (≈ 1.01 µM), the IC90 (MG-63) was 0.99 µg/mL (≈ 2.12 µM) and the IC50 (SK-OV-3) was 1.67 µg/mL (≈ 3.58 µM). The IC90 (SK-OV-3) was 3.8 µg/mL (≈ 8.15 µM), the IC50 (Becap-37) was 1.12 µg/mL (≈ 2.4 µM) and the IC90 (Becap-37) was 3.79 µg/mL (≈ 8.12 µM). For the same compound, the IC50 (A549) was 2.6 µg/mL (≈ 5.57 µM), the IC90 (A549) was 6.08 µg/mL (≈ 13 µM) and the IC50 (Hep G2) was 0.98 µg/mL (≈ 2.1 µM). The IC90 (Hep G2) was 10.6 µg/mL (≈ 22.7 µM), the IC50 (PC-3) was 1.67 µg/mL (≈ 3.58 µM) and the IC90 (PC-3) was 3.8 µg/mL (≈ 8.15 µM). It also gave an IC50 (U87-MG) of 0.8 µg/mL (≈ 1.71 µM), an IC90 (U87-MG) of 2.36 µg/mL (≈ 5.06 µM) and an IC50 (CaEs-17) of 1.21 µg/mL (≈ 2.59 µM). It also gave an IC90 (CaEs-17) of 5.47 µg/mL (≈ 11.7 µM), an IC50 (RKO) of 0.46 µg/mL (≈ 0.986 µM) and an IC90 (RKO) of 0.94 µg/mL (≈ 2.01 µM). The IC50 (PANC-1) was 1.79 µg/mL (≈ 3.84 µM), the IC90 (PANC-1) was 6.42 µg/mL (≈ 13.8 µM) and the IC50 (Jurkat) was 0.68 µg/mL (≈ 1.46 µM). The IC90 (Jurkat) was 2.63 µg/mL (≈ 5.64 µM), the IC50 (H9) was 0.45 µg/mL (≈ 0.965 µM) and the IC90 (H9) was 0.95 µg/mL (≈ 2.04 µM). For the same compound, the IC50 (NB4) was 0.14 µg/mL (≈ 0.3 µM), the IC90 (NB4) was 0.47 µg/mL (≈ 1.01 µM) and the IC50 (CNE) was 1.41 µg/mL (≈ 3.02 µM). It also gave an IC90 (CNE) of 5.45 µg/mL (≈ 11.7 µM), an IC50 (Hep-2) of 1.64 µg/mL (≈ 3.52 µM) and an IC90 (Hep-2) of 7.7 µg/mL (≈ 16.5 µM). It also gave an IC50 (Hela) of 1.65 µg/mL (≈ 3.54 µM), an IC90 (Hela) of 4.67 µg/mL (≈ 10 µM) and an IC50 (MGC-803) of 0.88 µg/mL (≈ 1.89 µM). For the same compound, the IC90 (MGC-803) was 11 µg/mL (≈ 23.5 µM).
Work on `C=C1C(=O)[C@]23[C@H](OC(=O)c4ccccc4Cl)[C@H]1CC[C@H]2[C@@]12CO[C@@]3(O)[C@@H](O)[C@@H]1C(C)(C)CCC2=O` [BS-OR-003] yielded an IC50 (K562/ADR) of 0.71 µg/mL (≈ 1.42 µM), an IC90 (K562/ADR) of 2.07 µg/mL (≈ 4.13 µM) and an IC50 (Kasumi-1) of 0.72 µg/mL (≈ 1.44 µM). It also gave an IC90 (Kasumi-1) of 2.25 µg/mL (≈ 4.49 µM), an IC50 (RPMI 8226) of 0.46 µg/mL (≈ 0.918 µM) and an IC90 (RPMI 8226) of 1.79 µg/mL (≈ 3.57 µM). It also gave an IC50 (MG-63) of 0.48 µg/mL (≈ 0.958 µM), an IC90 (MG-63) of 2.74 µg/mL (≈ 5.47 µM) and an IC50 (SK-OV-3) of 1.82 µg/mL (≈ 3.63 µM). For the same compound, the IC90 (SK-OV-3) was 3.82 µg/mL (≈ 7.63 µM), the IC50 (Becap-37) was 1.12 µg/mL (≈ 2.24 µM) and the IC90 (Becap-37) was 3.09 µg/mL (≈ 6.17 µM). For the same compound, the IC50 (A549) was 2.82 µg/mL (≈ 5.63 µM), the IC90 (A549) was 5.64 µg/mL (≈ 11.3 µM) and the IC50 (Hep G2) was 1.69 µg/mL (≈ 3.37 µM). The IC90 (Hep G2) was 7.48 µg/mL (≈ 14.9 µM), the IC50 (PC-3) was 1.82 µg/mL (≈ 3.63 µM) and the IC90 (PC-3) was 3.82 µg/mL (≈ 7.63 µM). It also gave an IC50 (U87-MG) of 0.99 µg/mL (≈ 1.98 µM), an IC90 (U87-MG) of 2.82 µg/mL (≈ 5.63 µM) and an IC50 (CaEs-17) of 1.49 µg/mL (≈ 2.97 µM). For the same compound, the IC90 (CaEs-17) was 5.23 µg/mL (≈ 10.4 µM), the IC50 (RKO) was 0.66 µg/mL (≈ 1.32 µM) and the IC90 (RKO) was 1.49 µg/mL (≈ 2.97 µM). It also gave an IC50 (PANC-1) of 2.34 µg/mL (≈ 4.67 µM), an IC90 (PANC-1) of 8.51 µg/mL (≈ 17 µM) and an IC50 (Jurkat) of 0.81 µg/mL (≈ 1.62 µM). The IC90 (Jurkat) was 2.72 µg/mL (≈ 5.43 µM), the IC50 (H9) was 0.83 µg/mL (≈ 1.66 µM) and the IC90 (H9) was 1.82 µg/mL (≈ 3.63 µM). The IC50 (NB4) was 0.22 µg/mL (≈ 0.439 µM), the IC90 (NB4) was 0.81 µg/mL (≈ 1.62 µM) and the IC50 (CNE) was 1.93 µg/mL (≈ 3.85 µM). It also gave an IC90 (CNE) of 6.62 µg/mL (≈ 13.2 µM), an IC50 (Hep-2) of 1.85 µg/mL (≈ 3.69 µM) and an IC90 (Hep-2) of 7.56 µg/mL (≈ 15.1 µM). The IC50 (Hela) was 1.84 µg/mL (≈ 3.67 µM), the IC90 (Hela) was 5.31 µg/mL (≈ 10.6 µM) and the IC50 (MGC-803) was 1.43 µg/mL (≈ 2.85 µM). The IC90 (MGC-803) was 10.7 µg/mL (≈ 21.4 µM).
